Test results reported in BigSolDB 2.1.

NNC(=O)c1ccncc1
solubility (mole fraction)
Settings	283.15 K	288.15 K	293.15 K	298.15 K	303.15 K	308.15 K	313.15 K	318.15 K	323.15 K
in DMF	0.023	0.027	0.031	0.035	0.0412	0.0458	0.0511	0.0567	0.0649
in acetonitrile	0.000725	0.000912	0.00109	0.00141	0.00169	0.002	0.00241	0.00288	0.00331
in ethanol	0.00266	0.00318	0.00384	0.00465	0.00549	0.00646	0.00754	0.0087	0.00996
in ethyl acetate	0.000976	0.0012	0.00136	0.0016	0.00195	0.00234	0.00279	0.00331	0.00374
in isopropanol	0.0021	0.00253	0.00314	0.00373	0.00453	0.00558	0.00651	0.00804	0.00949
in methanol	0.00574	0.0067	0.00797	0.00961	0.0112	0.0131	0.0151	0.0179	0.0211
in n-propanol	0.00219	0.00264	0.00329	0.00419	0.00495	0.0059	0.00705	0.0084	0.00983
in water	0.0106	0.0134	0.0159	0.0198	0.024	0.0296	0.0354	0.0421	0.0517
